The source of these data is patent US7629172B2, “Entrapped binding protein as biosensors” (Becton, Dickinson and Company, priority 2002, dated 2009).

Test [1] in a line: Change in fluorescence of reporter-labeled GGBP mutants in solution on glucose addition. Format: biochemical. Particulars: GGBP-H6 NBD. As to the method:
Labeled mutated maltose binding protein S337C MBP with fluorophore reporter probe NBD used herein in accordance with the procedure set forth by Cass, A. et al. (Anal. Chem. 1994, 66, 3840-3847). Fluorescence emission spectra of mutated, labeled protein was measured using an SLM Aminco fluorimeter (Ontario, Canada) with slit settings of 8 and 4 for excitation and settings of 5 and 5 on the MC250 emission monochromator to compare the ligand-binding performance of the entrapped fluorophore-labeled proteins in various matrixes to the performance of the same proteins in solution. The initial fluorescence emission intensity is defined as Io. The relative ratio of the emission intensity maxima in the presence of the protein's respective ligand (If) to the ligand's absence (Io) is defined as ΔF.
This example describes generically the labeling of binding protein with reporter probe. An aliquot of mutant GGBP containing cysteine (4.0 nmol) in PBS was treated with 2 mM dithiothreitol (5 μL, 10 nmol) for 30 min. A stock solution of N,N′-dimethyl-N-(iodoacetyl)-N′-(7-nitrobenz-2-oxa-1,3-diazol-4-yl)ethylenediamine (IANBD amide, 0.5 mg) was prepared in DMSO (100 μL, 11.9 mM) and 3.36 μL (40 nmol) was added to the protein. The reaction proceeded at room temperature for 4 h on a Dynal rotamix in the dark. The labeled protein was purified by gel filtration on a NAP-5 column (Amersham Pharmacia). The labeling rations were determined using an estimated extinction coefficient (50 mM^−1 cm^−1) for GGBP that was calculated in GeneWorks 2.45 (IntelliGenetics), ε478 (IANBD amide)=25 mM^−1cm^−1), and a measurement of O.D. for a standard solution of IANBD amide at 280 nm and 478 nm. The dye concentration in the protein was calculated as […]. The absorbance of protein at 280 nm was calculated as Aprot(280)=Atotal(280)−Adye(280), where Adye(280)=A478×(A280/A478)standard. The concentration of protein was then […].

The nature of test [2]: Binding constant (Kd) by titration of glucose into labeled protein solution. As to the method:
(§1) Binding constants were determined by titration of increasing concentrations of glucose into a protein solution with mixing following each addition of glucose. Slit settings were the same as listed above. The Kd was determined from the following relationships as adapted from Pisarchick and Thompson (1990):
where F is fluorescence intensity, Finf is fluorescence at infinity, F0 is fluorescence at zero glucose, and x is the free concentration of glucose ([Glc]free) as determined by the relationship:
where [Glc]tot and [Prot]tot are the total concentrations of glucose and protein, respectively.

A short description of test [3]: ΔF of labeled GGBP entrapped in optimized GMSC sol-gel (96 well microplate). Format: biochemical. As to the method:
(§2) Entrapment Of Binding Proteins In GMSC Sol-Gels Containing Functionalized Silicone Additives (FSA) and Polymers. This example describes the addition of polymer and organic polyol additives to optimize the GMSC sol-gels for entrapping binding proteins to both maintain and enhance their spectral properties upon ligand binding. The binding proteins were labeled with a fluorophore (as described in example 3). The protein solutions were added during the final hydrolysis/gelling step described previously to produce final concentrations of 2-4 μM protein within the sol-gel. The polymer additives and FSA's were obtained from Sigma-Aldrich Chemicals (St. Louis, Mo.). Polymer additives were evaluated in amounts between 0 to about 30 wt. Functionalized silicone additives (FSA) were evaluated as additives to the GMSC sol-gels in amounts from 0 to about 0.6% mole ratio. Thus, rotary evaporation of the GMSC reagent to remove methanol from its storage solution was followed by reconstitution in water in a 1:1 ratio by weight. […] Fluorescence emission was measured with a Varian Cary Eclipse scanning fluorometer with microwell plate adapter (Varian Instruments, Victoria, Australia). Excitation was at 475 nm and emission recorded from 500 to 600 nm, typically monitoring emission maximum peak fluorescence. […]

Test [4] in a line: Kd of labeled GGBP entrapped in optimized GMSC sol-gel. It is filed as binding. Particulars: protein entrapped in optimized sol-gel formulation. As to the method:
as §1
as §2, with “The polymer additives and FSA's were obtained from Sigma-Aldrich Chemicals (St. Louis, Mo.).” left out, “ratio.” for “ratio. Thus, rotary evaporation of the GMSC reagent to remove methanol from its storage solution was followed by reconstitution in water in a 1:1 ratio by weight.”

The nature of test [5]: GGBP L238C/A213C in dialysis membrane on fiber optic, reversibility of signal. It is filed as biochemical. The note with it: cycles between PBS buffer and 2 mM, 20 mM glucose; emission 521 nm; FIG. 4. As to the method: This example describes the immobilization of a biosensor of the instant invention into a dialysis membrane matrix and the ability of the matrix to provide reversible and continuous readings. Using a Varian Eclipse fluorimeter with a fiber optic attachment, GGBP L238C/A213C protein (2 μM in PBS buffer) entrapped within a dialysis membrane having a molecular cut-off of 3500 Daltons affixed to the distal end of the fiber. Solutions were prepared containing PBS buffer, 2 mM, and 20 mM glucose in PBS buffer. With the probe in PBS solution, readings were recorded at 0.02 seconds intervals of the emission wavelength 521 nm, followed by insertion of the fiber into the glucose solutions.

The nature of test [6]: ΔF of H152 GGBP-H6 NBD entrapped in sol-gel matrixes vs solution. Format: biochemical. The note with it: ratio If/Io, matrix containing H152 GGBP-H6 NBD.
Test [7] is described as follows: GGBP H152C entrapped in UV cross-linked SbQ-PVA hydrogel, glucose challenge. It is filed as biochemical. Here is the method:
This example describes the entrapment of GGBP H152C in UV cross-linked hydrogel matrix and the effect of the matrix on the fluorescence change and binding affinity. In this experiment SbQ-PVA from Polysciences Inc. was added 100 ul of PBS buffer and mixed for one hour to mix in a rotary mixer. 80 ul of this solution was then mixed with 20 ul of labeled protein. Final protein concentration was spectroscopically determined to be 0.15 mg/ml. After mixing, aliquiots were dispensed into 96-well plates and dried in a chamber maintained at 20% humidity for 12 h followed by curing with UV light. Wells containing protein encapsulated in matrix were challenge with 2 ul of 10 mM glucose and compared to protein solution without matrix having equivalent protein loading.

The mark [8] stands for this setting: from 0 to 1 mM Glc at 0.5 μM [NBD].
Setting [9] is: GGBP-H6 NBD, solution, measured at 0.1 μM [dye], read-out: Solution Kd.
The mark [10] stands for this setting: protein in solution, read-out: Kd (mM) [solution value].

One may read the Kd as the concentration at which binding is half-saturated.

Consider “A213C, L238C: GGBP-H6 NBD double mutant, cysteines at positions 213 and 238”, for which the “Δ F(%)” value in test [1] (setting [8]) was 24%; in test [1] (measured from 0 to 100 mM Glc), 67%. In addition, the dissociation constant (Kd) in test [2] (setting [9]) was found to be 6000 µM; in test [2] (setting [10]) it was 6000 µM; in test [4], 2200 µM. For the same molecule, in test [3] (sugar challenge 100 mM glucose), the “ΔF (enhancement vs. solution)” value was determined as 2.36x. Besides, in test [5], the reversibility of signal result is given as “return of initial signal”. For “D14C: GGBP-H6 NBD mutant, cysteine substituted for aspartic acid at position 14”, the “Δ F(%)” value in test [1] (setting [8]) is 1%.

Regarding “D287C: GGBP-H6 NBD mutant, cysteine substituted for aspartic acid at position 287”, the “Δ F(%)” value in test [1] (setting [8]) worked out at 4%. Take “E149C, A213R, L238S: GGBP-H6 NBD triple mutant”: the “Δ F(%)” value in test [1] (setting [8]) is reported as 500%. Also, the dissociation constant Kd in test [2] (setting [9]) was 35000 µM.

For the molecule E149C, A213R: GGBP-H6 NBD double mutant, the equilibrium dissociation constant (Kd) in test [2] (setting [9]) worked out at 1000 µM.

Regarding “E149C, A213S, L238S: GGBP-H6 NBD triple mutant”, in test [1] (setting [8]), the “Δ F(%)” value is reported as 480%. Also, the equilibrium dissociation constant (Kd) in test [2] (setting [9]) is 470 µM. In the case of E149C, L238S: GGBP-H6 NBD double mutant, the equilibrium dissociation constant (Kd) in test [2] (setting [9]) worked out at 80 µM. E149C, N256S: GGBP-H6 NBD double mutant: the “Δ F(%)” value in test [1] (setting [8]) is listed as 1%. As to “E149C: GGBP-H6 NBD mutant, cysteine substituted for glutamic acid at position 149”, the “Δ F(%)” value in test [1] (setting [8]) came out at 300%. In addition, the dissociation constant Kd in test [2] (setting [9]) stood at 0.2 µM. Turning to “G74C: GGBP-H6 NBD mutant, cysteine substituted for glycine at position 74”, the dissociation constant Kd in test [2] (setting [9]) is 0.9 µM. As for H152C, A213S: GGBP-H6 NBD double mutant, the “Δ F(%)” value in test [1] (setting [8]) is reported as 100%. In addition, in test [2] (setting [9]), the Kd is 160 µM. On to “H 152 C GGBP-NBD: glucose/galactose binding protein with cysteine at position 152, His6 tag, labeled with NBD”, for which the Kd in test [2] (setting [10]) worked out at 70 µM; in test [4], 360 µM. Further, the “ΔF (10 mM Glucose)” value in test [6] was 1.53. Also, the “ΔF (enhancement vs. solution)” value in test [3] (sugar challenge 10 mM glucose) came out at 2.93x. Also, the “Kd of the entrapped protein” value in test [7] (SbQ-PVA UV cross-linked hydrogel) is “comparable to that obtained in solution”. Further, in test [7] (SbQ-PVA hydrogel, 10 mM glucose challenge, FIG. 3), the “response to the analyte (fluorescence) vs solution” value was “equivalent to that obtained in solution”. With “K11C: GGBP-H6 NBD mutant, cysteine substituted for lysine at position 11”, the “Δ F(%)” value in test [1] (setting [8]) came out at 10%. For “K113C: GGBP-H6 NBD mutant, cysteine substituted for lysine at position 113”, the “Δ F(%)” value in test [1] (setting [8]) is recorded as 15%.

For “K137C: GGBP-H6 NBD mutant, cysteine substituted for lysine at position 137”, the Kd in test [2] (setting [9]) was 0.04 µM. Regarding “L238C: GGBP-H6 NBD mutant, cysteine substituted for leucine at position 238”, the “Δ F(%)” value in test [1] (measured from 0 to 100 mM Glc) is listed as “+3%”. As for “N43C: GGBP-H6 NBD mutant, cysteine substituted for asparagine at position 43”, the “Δ F(%)” value in test [1] (setting [8]) is on record as 40%. For the same molecule, in test [2] (setting [9]), the Kd is 0.2 µM.

As to “R292C: GGBP-H6 NBD mutant, cysteine substituted for arginine at position 292”, the dissociation constant Kd in test [2] (setting [9]) was 0.8 µM. In the case of S112C, L238S: GGBP-H6 NBD double mutant, in test [1] (setting [8]), the “Δ F(%)” value is on record as 6%.

Regarding “V19C: GGBP-H6 NBD mutant, cysteine substituted for valine at position 19”, the Kd in test [2] (setting [9]) came to 0.1 µM. Still for that read-out and setting: the value for “Y107C: GGBP-H6 NBD mutant, cysteine substituted for tyrosine at position 107” was 1 µM; that for “wild type: wild type E. coli galactose/glucose binding protein (GGBP-H6), intrinsic fluorescence [reference compound]” was 0.2 µM.

B1: E149C, M182C, A213C, L238S: GGBP-H6 NBD mutant with four amino acid substitutions (protein, UniProt P0AEE5 24-332, looked up, variant E149C M182C A213C L238S)
D-galactose/methyl-galactoside …: ADTRIGVTIYKYDDNFMSVVRKAIEQDAKAAPDVQLLMNDSQNDQSKQNDQIDVLLAKGVKALAINLVDPAAAGTVIEKARGQNVPVVFFNKEPSRKALDSYDKAYYVGTDSKESGIIQGDLIAKHWAANQGWDLNKDGQIQFVLLKGCPGHPDAEARTTYVIKELNDKGIKTEQLQLDTACWDTAQAKDKMDAWLSGPNANKIEVVIANNDCMAMGAVEALKAHNKSSIPVFGVDASPEALALVKSGALAGTVLNDANNQAKATFDLAKNLADGKGAADGTNWKIDNKVVRVPYVGVDKDNLAEFSKK
modifications: His6 tag, NBD fluorophore label
notes: GGBP-H6 NBD mutant with four amino acid substitutions
Regarding B1, in test [1] (setting [8]), the “Δ F(%)” value is on record as 200%.
